Results as given in the supplement of paper PMC12325586.

System: MIA PaCa-2
Protocol: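 MIA PaCa-2 Tet-on shOFD1 pancreatic cancer cells (2000 cells/well, 96-well) were treated with Selleck FDA-approved library compounds at 0, 1, 5, 10, 25 and 50 µM, with extra concentrations added where needed, for 72 h at 37 °C. Knockdown wells also received 100 ng/mL doxycycline; control wells received DMSO without doxycycline. Viability was read by CCK-8 absorbance at 450 nm and normalised to DMSO control wells. IC50 was fitted in GraphPad Prism as a 4-parameter logistic with bottom fixed at 0 and top fixed at 1; at least 3 technical replicate wells per condition.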

[1] = OFD1 knockdown: no (no doxycycline)
[2] = OFD1 knockdown: yes (Tet-on shOFD1, 100 ng/mL doxycycline)

IC50 cell viability [1] [µM]	IC50 cell viability [2] [µM]	Compound
13.3	12.1	CC[C@@H]1C(=O)N(C)c2cnc(Nc3ccc(C(=O)N[C@H]4CC[C@H](N5CCN(CC6CC6)CC5)CC4)cc3OC)nc2N1C(C)C [S2235]
29.5	27.8	CNC(=O)c1ccc(N2C(=S)N(c3ccc(C#N)c(C(F)(F)F)c3)C(=O)C2(C)C)cc1F [S1250]
69.1	51.3	NC(=O)c1ccc(I)c([N+](=O)[O-])c1 [S1087]
11	10.3	Cc1nnc(C(C)C)n1[C@H]1C[C@H]2CC[C@@H](C1)N2CC[C@H](NC(=O)C1CCC(F)(F)CC1)c1ccccc1 [S2003]
8.24	10.5	COc1cc(Nc2ncc3c(n2)-c2ccc(Cl)cc2C(c2c(F)cccc2OC)=NC3)ccc1C(=O)O [S1133]
3.55	3.77	O=C1c2c(O)ccc(O)c2C(=O)c2c(NCCNCCO)ccc(NCCNCCO)c21 [S2485]
0.81	0.61	Cc1nc(Nc2ncc(C(=O)Nc3c(C)cccc3Cl)s2)cc(N2CCN(CCO)CC2)n1 [S1021]
22.1	23	CCC(C)n1ncn(-c2ccc(N3CCN(c4ccc(OCC5COC(Cn6cncn6)(c6ccc(Cl)cc6Cl)O5)cc4)CC3)cc2)c1=O (stereo unspecified) [S2476]
7.48	8.13	CN1CCN(CCOc2cc(OC3CCOCC3)c3c(Nc4c(Cl)ccc5c4OCO5)ncnc3c2)CC1 [S1006]
11.5	11.4	O=c1[nH]c(=O)n([C@H]2C[C@H](O)[C@@H](CO)O2)cc1F [S1299]
43.1	46.4	CC(=O)c1c(C)c2cnc(Nc3ccc(N4CCNCC4)cn3)nc2n(C2CCCC2)c1=O [S1116]
10.2	8.9	CC(=O)O[C@]1(C(C)=O)CC[C@H]2[C@@H]3C[C@H](C)C4=CC(=O)CC[C@]4(C)[C@H]3CC[C@@]21C [S2567]
13.9	14.2	C[C@@H](O[C@H]1OCCN(Cc2n[nH]c(=O)[nH]2)[C@H]1c1ccc(F)cc1)c1cc(C(F)(F)F)cc(C(F)(F)F)c1 [S1189]
53.1	52.4	C=CC(=O)N1CCC[C@@H](n2nc(-c3ccc(Oc4ccccc4)cc3)c3c(N)ncnc32)C1 [S2680]
0.41	0.39	Cn1cc(CNCC2CCN(c3ncc(C(=O)NO)cn3)CC2)c2ccccc21 [S1096]
1.85	1.52	COc1cccc2c1C(=O)c1c(O)c3c(c(O)c1C2=O)CC(O)(C(=O)CO)CC3OC1CC(N)C(O)C(C)O1 (stereo unspecified) [S1208]
21.1	19.7	COc1cc2nccc(Oc3ccc(NC(=O)NC4CC4)c(Cl)c3)c2cc1C(N)=O [S1164]
26.2	25	CCC(C)(C)C(=O)O[C@H]1C[C@@H](C)C=C2C=C[C@H](C)[C@H](CC[C@@H]3C[C@@H](O)CC(=O)O3)[C@H]21 [S1792]
45.1	39.6	CC(C)C[C@H](NC(=O)CNC(=O)c1cc(Cl)ccc1Cl)B(O)O [S2180]
8.98	8.74	COc1ncc(-c2ccc3nccc(-c4ccnnc4)c3c2)cc1NS(=O)(=O)c1ccc(F)cc1F [S2658]
10.2	7.9	CS(=O)(=O)N1CCN(Cc2cc3nc(-c4cccc5[nH]ncc45)nc(N4CCOCC4)c3s2)CC1 [S1065]
20.2	19.2	COc1ccccc1OCC(O)CN1CCN(CC(=O)Nc2c(C)cccc2C)CC1 (stereo unspecified) [S1799]
1.29	1.07	Nc1ccccc1NC(=O)c1ccc(CNc2nccc(-c3cccnc3)n2)cc1 [S1122]
51.5	51.9	S=C(NCc1ccc2c(c1)OCO2)N1CCN(c2ncnc3c2oc2ccccc23)CC1 [S1244]
0.56	0.54	CO[C@H]1C[C@@H]2CC[C@@H](C)[C@@](O)(O2)C(=O)C(=O)N2CCCC[C@H]2C(=O)O[C@H]([C@H](C)C[C@@H]2CC[C@@H](O)[C@H](OC)C2)CC(=O)[C@H](C)/C=C(\C)[C@@H](O)[C@@H](OC)C(=O)[C@H](C)C[C@H](C)/C=C/C=C/C=C/1C [S1039]
10	7.5	COc1cc2nccc(Oc3ccc(NC(=O)Nc4cc(C)on4)c(Cl)c3)c2cc1OC [S1207]
13.8	14.4	CC(C)(C)c1cc(NC(=O)Nc2ccc(-c3cn4c(n3)sc3cc(OCCN5CCOCC5)ccc34)cc2)no1 [S1526]
27	24	CO[C@H]1C[C@@H]2CC[C@@H](C)[C@@](O)(O2)C(=O)C(=O)N2CCCC[C@H]2C(=O)O[C@H]([C@H](C)C[C@@H]2CC[C@@H](OC(=O)C(C)(CO)CO)[C@H](OC)C2)CC(=O)[C@H](C)/C=C(\C)[C@@H](O)[C@@H](OC)C(=O)[C@H](C)C[C@H](C)/C=C/C=C/C=C/1C [S1044]

Further lines, the molecule ahead of its results:

Compound	IC50 cell viability [1] [µM]	IC50 cell viability [2] [µM]
CC(C)(C)NCC(O)c1ccc(O)c(CO)c1 (stereo unspecified) [S2507]	4.57	4.1
C[C@]12CCC(=O)C(O)=C1CC[C@@H]1[C@@H]2CC[C@]2(C)C(=O)CC[C@@H]12 [S2208]	11	10.4
Cn1nnc2c(C(N)=O)ncn2c1=O [S1237]	12	11.3
COCC[n+]1c2c(n(Cc3cnccn3)c1C)C(=O)c1ccccc1C2=O [S1130]	0.82	0.92
Clc1ccc(Nc2nnc(Cc3ccncc3)c3ccccc23)cc1 [S1101]	30.8	24.3
O=c1[nH]cc(F)c(=O)[nH]1 [S1209]	3.34	2.54
O=C(c1ccc(OCCN2CCCCC2)cc1)c1c(-c2ccc(O)cc2)sc2cc(O)ccc12 [S1227]	8.3	8.74
CCOc1cc2ncc(C#N)c(Nc3ccc(F)c(Cl)c3)c2cc1NC(=O)/C=C/CN(C)C [S1392]	53.8	56.4
S=c1[nH]cnc2nc[nH]c12 [S1305]	27.5	27.7
COc1cc2nccc(Oc3ccc(NC(=O)C4(C(=O)Nc5ccc(F)cc5)CC4)cc3)c2cc1OC [S4001]	5.3	4.97
COc1cc(OC)c(/C=C/S(=O)(=O)Cc2ccc(OC)c(NCC(=O)O)c2)c(OC)c1 [S1362]	2.53	2.01
Cc1cccc(C)c1NC1=NCCCS1 [S2516]	15.3	14.1
COc1cc(Nc2nc3ccccc3nc2NS(=O)(=O)c2ccc(NC(=O)c3ccc(C)c(OC)c3)cc2)cc(OC)c1 [S1523]	47.6	45.5
CN1CC(=O)N2[C@H](c3ccc4c(c3)OCO4)c3[nH]c4ccccc4c3C[C@@H]2C1=O [S1512]	23.7	23.5
CN(C)CCOc1ccc(/C(=C(/CCCl)c2ccccc2)c2ccccc2)cc1 [S1776]	47.6	46.9
CC(=O)O[C@@]12CO[C@@H]1C[C@H](O)[C@@]1(C)C(=O)[C@H](O)C3=C(C)[C@@H](OC(=O)[C@H](O)[C@@H](NC(=O)OC(C)(C)C)c4ccccc4)C[C@@](O)([C@@H](OC(=O)c4ccccc4)[C@H]21)C3(C)C [S1148]	0.39	0.34
COc1c(C)c2c(c(O)c1C/C=C(\C)CCC(=O)O)C(=O)OC2 [S2487]	10.9	9.95
O=P1(NCCCl)OCCCN1CCCl (stereo unspecified) [S1302]	53	55.2
NC(=O)C1CCCc2c1[nH]c1ccc(Cl)cc21 (stereo unspecified) [S1541]	70.7	65
Cc1ccc(Nc2nccc(N(C)c3ccc4c(C)n(C)nc4c3)n2)cc1S(N)(=O)=O [S3012]	14	12.6
Cc1cccc(-c2nn3c(c2-c2ccnc4ccc(C(N)=O)cc24)CCC3)n1 [S2230]	3.61	3.02
CCCCCOC(=O)Nc1nc(=O)n([C@@H]2O[C@H](C)[C@@H](O)[C@H]2O)cc1F [S1156]	34	34.3
COc1cc([C@@H]2c3cc4c(cc3[C@@H](O[C@@H]3O[C@@H]5CO[C@@H](c6cccs6)O[C@H]5[C@H](O)[C@H]3O)[C@H]3COC(=O)[C@H]23)OCO4)cc(OC)c1O [S1787]	0.62	0.59
Cc1ccc(C(=O)N(CCCN)[C@@H](c2nc3cc(Cl)ccc3c(=O)n2Cc2ccccc2)C(C)C)cc1 [S1452]	1.44	1.4
C=C1C[C@@H]2[C@H](CC[C@]3(C)C(=O)CC[C@@H]23)[C@@]2(C)C=CC(=O)C=C12 [S1196]	53.5	50.2
CCCCCCNC(=O)n1cc(F)c(=O)[nH]c1=O [S1289]	2.36	2.4
COc1cc2c(Oc3ccc4[nH]c(C)cc4c3F)ncnc2cc1OCCCN1CCCC1 [S1017]	13.1	13.5
Cc1ccc(-n2nc(C(C)(C)C)cc2NC(=O)Nc2ccc(OCCN3CCOCC3)c3ccccc23)cc1 [S1574]	77.2	83.8
CCC1=C[C@@H]2CN(C1)Cc1c([nH]c3ccccc13)[C@@](C(=O)OC)(c1cc3c(cc1OC)N(C)[C@H]1[C@@](O)(C(=O)OC)[C@H](OC(C)=O)[C@]4(CC)C=CCN5CC[C@]31[C@@H]54)C2 [S4269]	3.46	3.12
CN1CCN(c2ccc3nc(-c4c(N)c5c(F)cccc5[nH]c4=O)[nH]c3c2)CC1 [S1018]	12.9	11.7
